Test results as given in patent US9932350B2, “Inhibitors of IRAK4 activity” (MERCK SHARP & DOHME CORP., priority 2014, dated 2018).

Molecular target: GST tagged IRAK4 (Homo sapiens (Human), UniProt Q9NWZ3)
Assay: IRAK4 Kinase Assay (IMAP fluorescence polarization)
Type: biochemical
Details: 0.5 nM GST tagged IRAK4, 100 μM ATP, 30 minutes at 25° C.
Procedure: The kinase activity of IRAK4 is determined by its ability to catalyze the phosphorylation of a fluorescent polypeptide substrate. The extent of phosphorylation is measured using the IMAP technology (Molecular Devices) where the phosphorylated fluorescent substrate binds to the large M(III)-based nanoparticles which reduces the rotational speed of the substrate and thus increases its fluorescent polarization (FP).
20 μL reaction mixture contains 10 mM TriHCl, pH 7.2, 0.5 nM GST tagged IRAK4 (SignalChem), 100 nM fluorescent peptide substrate (RP7030, Molecular Devices), 100 μM ATP, 1 mM DDT, 1 mM MgCl2, and 0.01% Tween 20. The reaction is initiated by the addition of ATP. After incubation for 30 minutes at 25° C., 60 μL of Progressive IMAP Reagent (Molecular Devices) is added to stop the reaction. Change in RP7030's FP is determined by a FP reader (Analyst HT, LJL BioSystems).

GST tagged IRAK4, sequence (Q9NWZ3 whole entry): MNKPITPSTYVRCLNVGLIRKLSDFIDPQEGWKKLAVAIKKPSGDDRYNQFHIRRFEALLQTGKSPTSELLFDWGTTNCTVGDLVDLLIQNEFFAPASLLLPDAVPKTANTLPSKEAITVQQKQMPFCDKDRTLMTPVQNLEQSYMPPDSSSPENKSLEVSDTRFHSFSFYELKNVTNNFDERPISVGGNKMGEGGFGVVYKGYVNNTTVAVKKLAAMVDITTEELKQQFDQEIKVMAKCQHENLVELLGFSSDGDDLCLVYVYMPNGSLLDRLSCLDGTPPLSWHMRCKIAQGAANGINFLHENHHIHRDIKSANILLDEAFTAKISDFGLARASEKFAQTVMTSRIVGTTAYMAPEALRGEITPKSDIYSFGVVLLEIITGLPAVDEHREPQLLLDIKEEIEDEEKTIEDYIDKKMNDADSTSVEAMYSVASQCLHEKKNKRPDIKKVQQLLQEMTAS

| Structure (SMILES) | IC50 |
| --- | --- |
| N#Cc1ccc2ncnc(N[C@H]3CC[C@H](N4CCC4)CC3)c2c1 [Example 3-1, 4-{[Trans-4-(azetidin-1-yl)cyclohexyl]amino}quinazoline-6-carbonitrile] | 0.034 µM |
| CC1CN([C@H]2CC[C@H](Nc3ncnc4ccc(C#N)cc34)CC2)CCO1 (single isomer, unassigned) [Example 3-16, 4-({trans-4-[(2S or 2R)-2-methylmorpholin-4-yl]cyclohexyl}amino) quinazoline-6-carbonitrile] | 0.007 µM |
| N#Cc1ccc2ncnc(N[C@H]3CC[C@H](N4CCC(F)(F)CC4)CC3)c2c1 [Example 3-54, 4-{[trans-4-(4,4-difluoropiperidin-1-yl)cyclohexyl]amino} quinazoline-6-carbonitrile] | 0.003 µM |
| N#Cc1ccc2ncnc(N[C@H]3CC[C@H](N4CC[C@H](O)C4)CC3)c2c1 [Example 3-34, 4-({trans-4-[(3S)-3-hydroxypyrrolidin-1-yl]cyclohexyl}amino) quinazoline-6-carbonitrile] | 0.033 µM |
| N#Cc1ccc2ncnc(N[C@H]3CC[C@H](N4CCC(O)C4)CC3)c2c1 (stereo partly drawn) [Example 3-55, 4-{[trans-4-(3-hydroxypyrrolidin-1-yl)cyclohexyl]amino} quinazoline-6-carbonitrile] | 0.015 µM |
| N#Cc1ccc2ncnc(N[C@H]3CC[C@H](N4CCOC(C(F)(F)F)C4)CC3)c2c1 (single isomer, unassigned) [Example 3-49, 4-({trans-4-[(2R or 2S)-2-(trifluoromethyl)morpholin-4-yl]cyclohexyl}amino) quinazoline-6-carbonitrile] | 0.131 µM |
| N#Cc1ccc2ncnc(N[C@H]3CC[C@H](N4CCC(F)CC4)CC3)c2c1 [Example 3-19, 4-{[trans-4-(4-fluoropiperidin-1-yl)cyclohexyl]amino} quinazoline-6-carbonitrile] | 0.003 µM |
| N#Cc1ccc2ncnc(N[C@H]3CC[C@H](N4CCCC(CN5CCOCC5)C4)CC3)c2c1 (stereo partly drawn) [Example 3-46, 4-({trans-4-[3-(morpholin-4-ylmethyl)piperidin-1-yl]cyclohexyl}amino) quinazoline-6-carbonitrile] | 0.007 µM |
| CC1(C)CN([C@H]2CC[C@H](Nc3ncnc4ccc(C#N)cc34)CC2)CCO1 [Example 3-51, 4-{[trans-4-(2,2-dimethylmorpholin-4-yl)cyclohexyl]amino} quinazoline-6-carbonitrile] | 0.089 µM |
| N#Cc1ccc2ncnc(N[C@H]3CC[C@H](N4CCOC(CO)C4)CC3)c2c1 (single isomer, unassigned) [Example 3-12, 4-({trans-4-[(2R or 2S)-2-(hydroxymethyl)morpholin-4-yl]cyclohexyl}amino) quinazoline-6-carbonitrile] | 0.006 µM |
| CN(C)[C@H]1CC[C@H](Nc2ncnc3ccc(OCC#N)cc23)CC1 [Example 2-15] | 0.012 µM |
| N#Cc1ccc2ncnc(NC3CCC(N4CCCC(C(F)(F)F)C4)CC3)c2c1 (single isomer, unassigned) [Example 3-4, 4-({cis or trans-4-[(3R or S)-3-(trifluoromethyl)piperidin-1-yl]cyclohexyl}amino) quinazoline-6-carbonitrile] | 0.503 µM |
| C[C@H]1COCCN1[C@H]1CC[C@H](Nc2ncnc3ccc(C#N)cc23)CC1 [Example 3-28, 4-({trans-4-[(3S)-3-methylmorpholin-4-yl]cyclohexyl}amino) quinazolin-6-carbonitrile] | 0.047 µM |
| CS(=O)(=O)C1CCN([C@H]2CC[C@H](Nc3ncnc4ccc(C#N)cc34)CC2)CC1 [Example 3-10, 4-({trans-4-[4-(methylsulfonyl)piperidin-1-yl]cyclohexyl}amino) quinazoline-6-carbonitrile] | 0.011 µM |
| N#Cc1ccc2ncnc(N[C@H]3CC[C@H](N4CCOC5CCCC54)CC3)c2c1 (stereo partly drawn) [Example 3-24, 4-({trans-4-[(4aS,7aS or 4aR,7aR)-hexahydrocyclopenta[b] [1,4]oxazin-4(4aH)-yl]cyclohexyl}amino) quinazoline-6-carbonitrile] | 0.011 µM |
| C[C@@H]1CN([C@H]2CC[C@H](Nc3ncnc4ccc(C#N)cc34)CC2)C[C@H](C)O1 [Example 3-9, 4-({trans-4-[(2R,6S)-2,6-dimethylmorpholin-4-yl]cyclohexyl}amino) quinazoline-6-carbonitrile] | 0.005 µM |
| CN(C)[C@H]1CC[C@H](Nc2ncnc3ccc(C#N)cc23)CC1 [Example 2-5, 4-{[trans-4-(dimethylamino)cyclohexyl]amino}quinazoline-6-carbonitrile] | 0.007 µM |
| N#Cc1ccc2ncnc(N[C@H]3CC[C@H](N4CCOC(CF)C4)CC3)c2c1 (stereo partly drawn) [Example 3-27, 4-({trans-4-[2-(fluoromethyl)morpholin-4-yl]cyclohexyl}amino) quinazoline-6-carbonitrile] | 0.008 µM |
| N#Cc1ccc2ncnc(N[C@H]3CC[C@H](N4CCCC(F)(F)CC4)CC3)c2c1 [Example 3-53, 4-{[trans-4-(4,4-difluoroazepan-1-yl)cyclohexyl]amino} quinazoline-6-carbonitrile] | 0.012 µM |
| N#Cc1ccc2ncnc(N[C@H]3CC[C@H](N)CC3)c2c1 [Example 1-1, 4-[(Trans-4-aminocyclohexyl)amino]quinazoline-6-carbonitrile] | 0.031 µM |
| N#Cc1cc2c(N[C@H]3CC[C@H](N4CCOCC4)CC3)ncnc2cc1F [Example 5-1, 7-Fluoro-4-{[trans-4-(morpholin-4-yl)cyclohexyl]amino}quinazoline-6-carbonitrile] | 0.027 µM |
| CS(=O)(=O)C1CCN([C@H]2CC[C@H](Nc3ncnc4ccc(C#N)cc34)CC2)C1 (stereo partly drawn) [Example 3-13, 4-({trans-4-[3-(methylsulfonyl)pyrrolidin-1-yl]cyclohexyl}amino) quinazoline-6-carbonitrile] | 0.014 µM |

The next lines start with the values.

| IC50 | Structure (SMILES) |
| --- | --- |
| 0.013 µM | N#Cc1ccc2ncnc(N[C@H]3CC[C@H](N4CCN(C(=O)C5CC5(F)F)CC4)CC3)c2c1 (stereo partly drawn) [Example 6-14, 4-[(trans-4-{4-[(2,2-difluorocyclopropyl)carbonyl]piperazin-1-yl}cyclohexyl)amino] quinazoline-6-carbonitrile] |
| 0.003 µM | N#Cc1ccc2ncnc(N[C@H]3CC[C@H](N4CCN(C(=O)C5CC5)CC4)CC3)c2c1 [Example 6-1, 4-({Trans-4-[4-(cyclopropylcarbonyl)piperazin-1-yl]cyclohexyl}amino)quinazoline-6-carbonitrile] |
| 0.007 µM | N#Cc1ccc2ncnc(N[C@H]3CC[C@H](N4CCC(F)CC4)[C@@H]4C[C@@H]43)c2c1 [Example 7-4, 4-{[(1S,2S,5S,6R)-5-(4-fluoropiperidin-1-yl)bicyclo[4.1.0]hept-2-yl]amino}quinazoline-6-carbonitrile] |
| 0.015 µM | CC1(C(=O)N2CCN([C@H]3CC[C@H](Nc4ncnc5ccc(C#N)cc45)CC3)CC2)CC1 [Example 6-8, 4-[(trans-4-{4-[(1-methylcyclopropyl)carbonyl]piperazin-1-yl}cyclohexyl)amino] quinazoline-6-carbonitrile] |
| 0.01 µM | N#Cc1ccc2ncnc(N[C@H]3CC[C@H](N4CCN(C(=O)C5CCCC5)CC4)CC3)c2c1 [Example 6-16, 4-({trans-4-[4-(cyclopentylcarbonyl)piperazin-1-yl]cyclohexyl}amino) quinazoline-6-carbonitrile] |
| 0.011 µM | N#Cc1ccc2ncnc(N[C@H]3CC[C@H](N4CCN(C(=O)[C@@H]5CCCO5)CC4)CC3)c2c1 [Example 6-11, 4-[(trans-4-{4-[(2S)-tetrahydrofuran-2-ylcarbonyl]piperazin-1-yl}cyclohexyl)amino] quinazoline-6-carbonitrile] |
| 0.014 µM | CC1(C(=O)N2CCN([C@H]3CC[C@H](Nc4ncnc5ccc(C#N)cc45)CC3)CC2)COC1 [Example 6-9, 4-[(trans-4-{4-[(3-methyloxetan-3-yl)carbonyl]piperazin-1-yl}cyclohexyl)amino] quinazoline-6-carbonitrile] |
| 0.016 µM | COCC(=O)N1CCN([C@H]2CC[C@H](Nc3ncnc4ccc(C#N)cc34)CC2)CC1 [Example 6-10, 4-({trans-4-[4-(methoxyacetyl)piperazin-1-yl]cyclohexyl}amino) quinazoline-6-carbonitrile] |
| 0.017 µM | N#Cc1ccc2ncnc(N[C@H]3CC[C@H](N4CCN(C(=O)[C@H]5CCCO5)CC4)CC3)c2c1 [Example 6-23, 4-[(trans-4-{4-[(2R)-tetrahydrofuran-2-ylcarbonyl]piperazin-1-yl}cyclohexyl)amino] quinazoline-6-carbonitrile] |
| 0.026 µM | CC1CC(N2CCOCC2)CCC1Nc1ncnc2ccc(C#N)cc12 (single isomer, unassigned) [Example 8-3, 4-{[(1S,2R,4S or 1R,2S,4R)-2-methyl-4-(morpholin-4-yl)cyclohexyl]amino} quinazoline-6-carbonitrile] |
| 0.074 µM | C[C@]1(Nc2ncnc3ccc(C#N)cc23)CC[C@H](N2CCC(F)CC2)CC1 [Example 7-2, 4-{[trans-4-(4-fluoropiperidin-1-yl)-1-methylcyclohexyl]amino} quinazoline-6-carbonitrile] |
| 0.014 µM | CC1CC(N2CCOCC2)CCC1Nc1ncnc2ccc(C#N)cc12 (single isomer, unassigned) [Example 8-1, 4-{[(1R,2R,4R or 1S,2S,4S)-2-methyl-4-(morpholin-4-yl)cyclohexyl]amino}quinazoline-6-carbonitrile] |
| 0.098 µM | C[C@]1(Nc2ncnc3ccc(C#N)cc23)CC[C@H](N2CCOCC2)CC1 [Example 7-1, 4-{[Trans-1-methyl-4-(morpholin-4-yl)cyclohexyl]amino}quinazoline-6-carbonitrile] |
